Measurements reported in PMC13070491, “Single-nucleus transcriptomics, pharmacokinetics, and pharmacodynamics of CDK4/6 and mTOR inhibition in a Phase 0/1 trial of recurrent high-grade glioma” (Neuro-Oncology, 2025).

System: GB126, GB239 and GB86 patient-derived cell lines
Assay: In vitro single-cell RNA sequencing, analyses across the cell lines (pseudobulk differential gene expression, GSEA, non-cycling cells)
Type: cell-based, human
Details: pseudobulk, ribociclib versus control (DMSO)
Protocol: Patient-derived glioma stem cell lines (GSCs; GB126, GB86, and GB239) were established from resected GBM tumor tissue. Cell lines were genetically profiled for mutations and copy number aberrations using the IvySeq custom gene panel. […] GB239 was derived from a tumor sample included in this Phase 0 trial (tumor sample: 100-0039). All human GSCs were cultured as described previously.[12]
Following the fifth day of drug exposure, cells were harvested, cryopreserved to be processed at a later point, or immediately processed for single-cell RNA sequencing (10x Genomics, 3’ version 3). The single-cell RNA sequencing data were then processed via cellranger count and Seurat. Briefly, cells were filtered out based on the following criteria: minimum number of genes detected >500 and <10 000 with a maximum percentage of mitochondrial genes set to 10%. Statistical assessment was made between the malignant proportions of each cell state using a 2-sided paired t-test.
Descriptive statistics of the clinical data are included in Table 1. Comparisons between groups were conducted using a 2-sided or paired 2-sided t-test, where indicated. P < .05 was considered significant. Multiple hypothesis test corrections (ie, false discovery rate correction) were applied for snRNAseq pseudobulk differential expression analysis.

CN(C)C(=O)c1cc2cnc(Nc3ccc(N4CCNCC4)cn3)nc2n1C1CCCC1 [ribo]
log2FoldChange RTP4 (gene RTP4): 2.131 | log2FoldChange (gene SAC3D1): -1.1095 | log2FoldChange SEC16B (gene SEC16B): 1.622 | log2FoldChange (gene SGO1): -1.732 | log2FoldChange (gene SHISA8): -1.822 | log2FoldChange (gene SLC2A4RG): -1.127 | log2FoldChange SNCG (gene SNCG): 1.82 | log2FoldChange (gene SNRPB): -1.13 | log2FoldChange SP6 (gene SP6): 1.619 | log2FoldChange SPTBN5 (gene SPTBN5): 1.5798 | log2FoldChange (gene STARD8): -1.058 | log2FoldChange (gene TCF19): -1.684 | log2FoldChange (gene TEKT2): -1.108 | log2FoldChange TEKT4 (gene TEKT4): 1.53 | log2FoldChange TEX29 (gene TEX29): 1.88 | log2FoldChange TLR8 (gene TLR8): 1.7124 | log2FoldChange TM4SF4 (gene TM4SF4): 1.515 | log2FoldChange TMEM88 (gene TMEM88): 1.467 | log2FoldChange (gene TMPO): -1.685 | log2FoldChange (gene TNFRSF13C): -1.634 | log2FoldChange (gene TRPC3): -1.603 | log2FoldChange (gene TUBA1B): -1.731 | log2FoldChange TUSC7 (gene TUSC7): 1.959 | log2FoldChange (gene TYMSOS): -1.808 | log2FoldChange (gene UBE2S): -1.812 | log2FoldChange (gene UHRF1): -1.689 | log2FoldChange (gene WDR62): -1.744 | log2FoldChange (gene XRCC2): -1.646 | log2FoldChange ZCCHC23 (gene ZCCHC23): 1.565 | log2FoldChange, feature AC004835.1: -1.938 | log2FoldChange, feature AC011139.1: -2.033 | log2FoldChange, feature AC020658.4: -2.697 | log2FoldChange, feature AC027277.1: -2.37 | log2FoldChange, feature AC027627.1: -3.761 | log2FoldChange, feature AC079753.2: -3.036 | log2FoldChange, feature AC084757.2: -2.199 | log2FoldChange, feature AC087721.1: -2.244 | log2FoldChange, feature AC097534.1: -1.917 | log2FoldChange, feature AC099845.1: -2.325 | log2FoldChange, feature AF233439.1: -2.426 | log2FoldChange, feature AL023803.2: -2.112 | log2FoldChange, feature AL136528.1: -3.4157 | log2FoldChange, feature AL606468.1: -2.361 | log2FoldChange, feature AL606500.1: -4.456 | log2FoldChange, feature ANLN: -2.17 | log2FoldChange, feature APOLD1: -2.2948 | log2FoldChange, feature ARHGEF16: -2.5327 | log2FoldChange, feature ARHGEF39: -2.785 | log2FoldChange, feature ASF1B: -2.413 | log2FoldChange, feature ASPM: -2.923 | log2FoldChange, feature AURKA: -1.946 | log2FoldChange, feature AURKB: -5.69 | log2FoldChange, feature BIRC5: -4.128 | log2FoldChange, feature BUB1B: -2.255 | log2FoldChange, feature C1QL1: -2.176 | log2FoldChange, feature CCNA1: -1.944 | log2FoldChange, feature CCNA2: -3.66 | log2FoldChange, feature CCNB1: -2.309 | log2FoldChange, feature CCNB2: -2.58 | log2FoldChange, feature CDC20: -2.615 | log2FoldChange, feature CDC25C: -2.251 | log2FoldChange, feature CDC45: -1.967 | log2FoldChange, feature CDCA2: -2.288 | log2FoldChange, feature CDCA3: -4.424 | log2FoldChange, feature CDCA5: -2.481 | log2FoldChange, feature CDCA8: -2.683 | log2FoldChange, feature CDK1: -3.117 | log2FoldChange, feature CDT1: -2.6933 | log2FoldChange, feature CENPE: -2.304 | log2FoldChange, feature CENPF: -2.646 | log2FoldChange, feature CENPM: -2.763 | log2FoldChange, feature CENPU: -1.962 | log2FoldChange, feature CEP55: -2.857 | log2FoldChange, feature CIT: -1.908 | log2FoldChange, feature CKAP2L: -3.667 | log2FoldChange, feature COL2A1: -2.114 | log2FoldChange, feature CSRP3-AS1: -2.408 | log2FoldChange, feature DEPDC1: -2.44 | log2FoldChange, feature DHRS2: -3.141 | log2FoldChange, feature DIAPH3: -2.737 | log2FoldChange, feature DIAPH3-AS1: -2.318 | log2FoldChange, feature DLGAP5: -4.307 | log2FoldChange, feature DUSP9: -1.8912 | log2FoldChange, feature E2F1: -2.143 | log2FoldChange, feature E2F2: -2.717 | log2FoldChange, feature E2F7: -1.962 | log2FoldChange, feature E2F8: -4.471 | log2FoldChange, feature EMILIN3: -2.469 | log2FoldChange, feature ESCO2: -3.335 | log2FoldChange, feature ESPL1: -2.787 | log2FoldChange, feature EXO1: -2.588 | log2FoldChange, feature FAM72C: -1.941 | log2FoldChange, feature FAM83D: -2.106 | log2FoldChange, feature FAM111B: -3.61 | log2FoldChange, feature FBLN7: -2.095 | log2FoldChange, feature FBXO5: -2.254 | log2FoldChange, feature FOXM1: -3.356 | log2FoldChange, feature FOXN4: -2.7907 | log2FoldChange, feature GTSE1: -3.691 | log2FoldChange, feature H2AFX: -1.9706 | log2FoldChange, feature HIST1H1B: -4.86 | log2FoldChange, feature HIST1H1D: -3.125 | log2FoldChange, feature HIST1H1E: -2.149 | log2FoldChange, feature HIST1H2AB: -3.666 | log2FoldChange, feature HIST1H2AD: -2.176 | log2FoldChange, feature HIST1H2AG: -3.09 | log2FoldChange, feature HIST1H2AH: -3.181 | log2FoldChange, feature HIST1H2AI: -3.193 | log2FoldChange, feature HIST1H2AJ: -3.606 | log2FoldChange, feature HIST1H2AK: -2.038 | log2FoldChange, feature HIST1H2AL: -4.067 | log2FoldChange, feature HIST1H2AM: -2.962 | log2FoldChange, feature HIST1H2BB: -4.24 | log2FoldChange, feature HIST1H2BF: -2.791 | log2FoldChange, feature HIST1H2BH: -2.674 | log2FoldChange, feature HIST1H2BI: -3.141 | log2FoldChange, feature HIST1H2BK: -2.1572 | log2FoldChange, feature HIST1H2BL: -3.055 | log2FoldChange, feature HIST1H2BM: -3.899 | log2FoldChange, feature HIST1H2BO: -4.102 | log2FoldChange, feature HIST1H3A: -2.494 | log2FoldChange, feature HIST1H3B: -4.012 | log2FoldChange, feature HIST1H3C: -3.43 | log2FoldChange, feature HIST1H3D: -3.164 | log2FoldChange, feature HIST1H3F: -4.011 | log2FoldChange, feature HIST1H3G: -5.89 | log2FoldChange, feature HIST1H3I: -2.396 | log2FoldChange, feature HIST1H4A: -2.4627 | log2FoldChange, feature HIST1H4B: -3.363 | log2FoldChange, feature HIST1H4C: -2.564 | log2FoldChange, feature HIST1H4D: -2.3219 | log2FoldChange, feature HIST1H4L: -3.364 | log2FoldChange, feature HIST2H2AA4: -2.973 | log2FoldChange, feature HIST2H2AB: -2.432 | log2FoldChange, feature HIST2H2AC: -2.094 | log2FoldChange, feature HIST2H3D: -3.112 | log2FoldChange, feature HIST2H4B: -3.0547 | log2FoldChange, feature HJURP: -3.812 | log2FoldChange, feature HMGB2: -3.4975 | log2FoldChange, feature HMGN2: -1.988 | log2FoldChange, feature HMMR: -2.398 | log2FoldChange, feature HMMR-AS1: -1.986 | log2FoldChange, feature IQGAP3: -3.825 | log2FoldChange, feature KIF2C: -3.46 | log2FoldChange, feature KIF4A: -3.264 | log2FoldChange, feature KIF11: -2.445 | log2FoldChange, feature KIF14: -1.93 | log2FoldChange, feature KIF15: -2.295 | log2FoldChange, feature KIF18B: -3.458 | log2FoldChange, feature KIF20A: -5.621 | log2FoldChange, feature KIF23: -2.582 | log2FoldChange, feature KIFC1: -3.063 | log2FoldChange, feature KNL1: -2.569 | log2FoldChange, feature LHX2: -2.082 | log2FoldChange, feature LINC00243: -2.438 | log2FoldChange, feature LINC01647: -5.161 | log2FoldChange, feature LINC01775: -2.182 | log2FoldChange, feature LMNB1: -1.981 | log2FoldChange, feature MCM10: -2.2 | log2FoldChange, feature MELK: -2.093 | log2FoldChange, feature MIR924HG: -2.274 | log2FoldChange, feature MKI67: -6.243 | log2FoldChange, feature MUC22: -3.844 | log2FoldChange, feature MXD3: -2.803 | log2FoldChange, feature MYB: -2.501 | log2FoldChange, feature MYBL2: -3.875 | log2FoldChange, feature NCAPG: -2.9227 | log2FoldChange, feature NCAPH: -2.746 | log2FoldChange, feature NDC80: -2.667 | log2FoldChange, feature NEIL3: -3.743 | log2FoldChange, feature NEK2: -3.576 | log2FoldChange, feature NEURL1B: -1.929 | log2FoldChange, feature NMU: -2.574 | log2FoldChange, feature NRM: -1.8865 | log2FoldChange, feature NRTN: -3.311 | log2FoldChange, feature NT5DC4: -2.34 | log2FoldChange, feature NUSAP1: -3.196 | log2FoldChange, feature NXPH2: -2.198 | log2FoldChange, feature PAK6: -1.969 | log2FoldChange, feature PAPOLB: -2.347 | log2FoldChange, feature PBK: -3.281 | log2FoldChange, feature PCLAF: -3.5822 | log2FoldChange, feature PCNA: -1.969 | log2FoldChange, feature PIF1: -3.124 | log2FoldChange, feature PIMREG: -3.009 | log2FoldChange, feature PKMYT1: -2.904 | log2FoldChange, feature PLK1: -3.608 | log2FoldChange, feature PRC1: -2.44 | log2FoldChange, feature PRIM1: -2.274 | log2FoldChange, feature PTTG1: -2.767 | log2FoldChange, feature RAD51AP1: -1.918 | log2FoldChange, feature RAD54L: -1.967 | log2FoldChange, feature RPP25: -1.919 | log2FoldChange, feature RRM2: -5.156 | log2FoldChange, feature SAPCD2: -1.989 | log2FoldChange, feature SDC1: -2.261 | log2FoldChange, feature SHCBP1: -2.035 | log2FoldChange, feature SKA1: -3.026 | log2FoldChange, feature SLC7A3: -2.68 | log2FoldChange, feature SPAG5: -2.024 | log2FoldChange, feature SPC24: -2.603 | log2FoldChange, feature SPC25: -3.836 | log2FoldChange, feature TACC3: -2.439 | log2FoldChange, feature TICRR: -2.318 | log2FoldChange, feature TK1: -2.815 | log2FoldChange, feature TMPO-AS1: -2.127 | log2FoldChange, feature TMSB15A: -2.211 | log2FoldChange, feature TOP2A: -4.082 | log2FoldChange, feature TP73: -3.442 | log2FoldChange, feature TPX2: -2.42 | log2FoldChange, feature TROAP: -3.212 | log2FoldChange, feature TTK: -1.967 | log2FoldChange, feature TYMS: -2.957 | log2FoldChange, feature UBE2C: -3.754 | log2FoldChange, feature UBE2T: -1.955 | log2FoldChange, feature WDR76: -2.235 | log2FoldChange, feature ZWINT: -1.901
